# Where two headings read alike, the source gives them in different places.
# Tests used:
# [1] = AUC after oral administration of tablets to beagle dogs (bioassay of blood); type: in vivo; settings: for AUC at 6 h: dog, blood, po, 500 mg
# Protocol: An amount of the dissolution accelerators used, showing pH 2.5-4 in an aqueous solution will be described in detail. […] In all of these cases, the elution rate of 3"-propionylleucomycin A5 is less than 60%. […] In order to obtain their good absorbability, generally, it is necessary to use the pH at which the elution rate is favorable. […] The accelerators need to be used in 5-100 mg in formulating preparations. It is particularly preferred that these dissolution accelerators, for example tartaric acid and citric acid are used in a total amount of 40-100 mg at single administration. That is, one tablet is allowed to contain about 40-100 mg in the administration of one tablet a time, and about 20-50 mg each in two tablets a time. It is also particularly preferred, when the antibiotics are applied orally in the form of powders, fine granules, capsules, granules or dry syrups, that the accelerators are used in approximately 40-100 mg to the 16-membered ring macrolide antibiotics given in a 200 mg potency a time. It is suitable for preservation that these dissolution accelerators are used coated with film-forming substances by a microcapsulization technique using the accelerators as core materials.
# To a mixture comprising TMS-19-Q and light anhydrous silicic acid, 10% w/w HPMC aqueous solution was added. Then the mixture was kneaded, dried and sieved by the use of a 24 mesh sieve to obtain Granule A.
# To a mixture comprising glycine, citric acid anhydride and light silicic acid, 5% w/w HPMC aqueous solution was added as binder, and the mixture was made into granules by fluidized bed method (FB method). Then the granules were dried and sieved through 24 mesh screen to obtain Granule B.
# To Granule A and Granule B, L-HPC and Avicel PH301 (to be adjusted by an amount of citric acid added: 52.7-12.7 g) and magnesium stearate were added and mixed. Then, the mixed powder was molded by pressure to the size of 14×8 mm and tablets were obtained, each of which (430 mg) containing 100 mg potency of TMS-19-Q 170 mg glycine and citric acid (0, 10, 20, 30 and 40 mg).
# [2] = Elution rate in aqueous solutions of various pH and physiological saline solution; type: physicochemical
# Protocol: After 40 ml of Japan Pharmacopoeia 1st solution (pH 1.2) was placed in a vessel whose temperature was kept constant in a thermostat at 37° C., 200 mg of TMS-19-Q was added and the mixture was stirred by a magnetic stirrer. […] Then, Japan Pharmacopoeia 2nd solution were mixed with the 1st solution, and by using aqueous solutions whose pH values were adjusted to be 2, 3, 4 and 5 and a physiological saline solution, respectively, elution rate of each thereof was measured.
# To 40 ml of Japan Pharmacopoeia 1st solution (pH 1.2), 120 ml of water was added, and after the solution was kept in a constant temperature bath controlled at 37° C., 200 mg of midecamycin was added, and the mixture was stirred by a magnetic stirrer. Then, 5 ml aliquots of the solution were sampled in a lapse of time (at 5 minutes, 15 minutes and 30 minutes), and absorbances were measured (wavelength: 232 nm) and elution rate were calculated. Then, Japan Pharmacopoeia 1st solution and Japan Pharmacopoeia 2nd solution were mixed to prepare aqueous solutions whose pH values were adjusted to be 2, 3, 4 and 5, respectively. By using these solutions and physiological saline solution, the elution rates were calculated following the same procedures as those indicated above.
# By following the same procedures and under the same conditions as those of Example 31, elution rates of 9-propionyljosamycin were measured.
# By following the same procedures and under the same conditions as those of Example 31, elution rates of josamycin were measured.
# In addition to the conditions of Example 31, Japan Pharmacopoeia 1st solution and Japan Parmacopoeia 2nd solution were mixed to prepare an aqueous solution having pH of 2.5, and following the same procedures as those of Example 31, elution rates of 9,3"-diacetylmidecamycin were measured.
structure (smiles),measurement,setting,value
"CCCC(=O)OC1C(C)OC(OC2C(C)OC(OC3C(CC=O)CC(C)C(O)/C=C/C=C/CC(C)OC(=O)CC(O)C3OC)C(O)C2N(C)C)CC1(C)OC(=O)CC (centres unmarked) [TMS-19-Q, 3""-propionyl leucomycin A5]",AUC versus amount of citric acid (in words),"[1]; beagles, oral, citric acid 30-40 mg",reached saturation
same,blood concentrations or absorbability (in words),"[1]; beagles, oral, citric acid more than 30 mg per tablet",Good blood concentrations or absorbability
same,AUC at 6 h,"[1]; read-out: AUC (area under a blood level versus time curve), 0 mg citric acid",11800 ng·h/mL
same,AUC at 6 h,"[1]; read-out: AUC (area under a blood level versus time curve), 10 mg citric acid",12300 ng·h/mL
same,AUC at 6 h,"[1]; read-out: AUC (area under a blood level versus time curve), 20 mg citric acid",17000 ng·h/mL
same,AUC at 6 h,"[1]; read-out: AUC (area under a blood level versus time curve), 30 mg citric acid",20500 ng·h/mL
same,AUC at 6 h,"[1]; read-out: AUC (area under a blood level versus time curve), 40 mg citric acid",20900 ng·h/mL
same,"elution rate, pH 1.2, 2 and 3","[2]; initial pH 1.2, 2 and 3, after 15-minute stirring, 37° C.",≥ 90%
same,"elution rate, pH 4 and 5","[2]; initial pH 4 and 5, after 15-minute stirring, 37° C.",40-45%
same,elution rate in pH 1.2-3 acidic aqueous solution (summary),"[2]; pH 1.2-3, general description",more than 95%
same,elution rate in pH 4-5 weak acidic aqueous solution (summary),"[2]; pH 4-5, general description",less than 50%
same,"elution rate, physiological saline solution","[2]; physiological saline solution, after 15-minute stirring, 37° C.",10%
same,elution rate in physiological saline solution (summary),"[2]; physiological saline solution, general description",less than 15%
same,time within which elution was nearly completed,[2]; solutions whose pH is equal to or less than 4.5,≤ 15 min

# From patent US4716153A, “Stable oral preparation of macrolide antibiotics and method for stabilizing the same” (priority 1982, dated 1987)
